Key:
[1] = cited from earlier work
[2] = system: participants diagnosed with at least moderate post-traumatic stress disorder (PTSD); experiment: Double-blind, randomized, placebo-controlled clinical trial of MBDB-assisted psychotherapy in PTSD; type: in vivo, human; settings: results that "may" be observed; for change in CAPS-5 assessment compared to the placebo group: at Study Conclusion
Description: A multicenter, randomized, double-blind, placebo-controlled trial is conducted to assess the efficacy and safety of MBDB-assisted psychotherapy versus psychotherapy with placebo control in participants diagnosed with at least moderate post-traumatic stress disorder (PTSD). Rationale
This multicenter, randomized, double-blind, placebo-controlled trial is conducted at various sites in the United States with IRB approval from each study site. A flexible dose of MBDB hydrochloride salt or placebo, followed by a supplemental half-dose unless contraindicated by patient's previous response or medical history, is also administered during the Treatment Period with psychotherapy in at least 3 blinded monthly Experimental Sessions. The Supplemental Dose extends the duration of drug effects on the participants during an Experimental Session. MBDB test groups are further subdivided into specific groups receiving only racemic MBDB hydrochloride salt, S-MBDB hydrochloride salt, or R-MBDB hydrochloride salt. An optional Risk Evaluation and Mitigation Strategy (REMS) Protocol may be implemented for the racemic MBDB, S-MBDB, R-MBDB, and placebo-groups. The Treatment Period lasts for approximately 12 weeks. During the Treatment Period, each Experimental Session is followed by three Intervening Sessions of non-drug psychotherapy. Each Experimental Session involves an overnight stay. The Primary Outcome measure, the change in Clinician Administered PTSD Scale for DSM-5 (CAPS-5), is determined by a blinded Independent Rater (IR) pool multiple times throughout the study. The study consists of separate periods for each participant. Initially, prospective participants undergo a Screening Period involving an initial eligibility assessment, a medical history intake, informed consent, and enrollment of eligible participants. Next, a Preparation Period is undertaken for enrolled participants involving medication tapering and clinical baseline assessments to confirm each participant meets enrollment criteria. As part of the Preparation Period, a detailed assessment of co-morbidities to PTSD is recorded. Participants may remain on prescribed courses of selective serotonin reuptake inhibitor (SSRI) or serotonin and norepinephrine reuptake inhibitor (SNRI) treatment. Dosages and/or frequency of administration of a prescribed SSRI or SNRI may be adjusted to fit within study parameters. Participants may be required to taper a prescribed course of medication in order to maintain eligibility within the study. The Treatment Period consists of three monthly Experimental Sessions and associated Intervening Sessions of integrative behavioral psychotherapy. The Treatment Period lasts approximately 12 weeks. Following the Treatment Period is a Follow-up Period and Study Conclusion. During the Follow-up Period and Study Conclusion, participants complete 4 weeks with no study visits, followed by a Study Conclusion visit.
This study compares the effects of three blinded Experimental Sessions of psychotherapy in combination with flexible doses of MBDB or placebo administered as described below. Non-drug preparatory and intervening psychotherapy sessions are also included. Patient's weight is determined for dosage calculation. Initial dose is 180 mg unless this will result in a dosage of less than 1.5 mg/kg of patient weight. Initial dose thereby adjusted upward in 50 mg increments to deliver the lowest dose possible of at least 1.5 mg/kg of patient weight. Initial dose for Experimental Session 2 and 3 is cumulative dose calculated by adding the initial dose plus REMS protocol dose used the previous Experimental Session for each patient.
The primary objective of this study is to evaluate the efficacy and safety of MBDB treatment combined with psychotherapy to treat moderate to severe PTSD compared to identical psychotherapy combined with placebo treatment. […]

Male Sprague-Dawley rats = experiment: Rat elevated zero maze model of anxiety; type: in vivo; settings: for frequency of stretched attend postures (SAPs): 30 min before 5-min test; for dose at which switch to an anxiolytic effect was shown (magnitude of reduction in SAPs): ip, rat zero maze
Source text: The rat zero-maze model is a refined alternative to the plus-maze, the most widely used animal model of anxiety, and consists of an elevated annular platform, divided equally into four quadrants. Two opposite quadrants are enclosed by Perspex walls on both the inner and the outer edges of the platform, while the remaining two opposite quadrants are open being enclosed only by a Perspex “lip”. Animals will show a preference for the closed areas, and avoidance of the open sections is assumed to stem from a rodent's natural aversion to open, exposed spaces. A reduction in the amount of activity on the open areas is considered to reflect an increase in anxiety. The ethologically-based behavior stretched attend postures (SAP) from closed to open quadrants is assessed as an index of anxiety. Increase in SAPs is indicative of an anxiogenic effect and decreases in SAPs is indicative of an anxiolytic effect. Shepherd, J K; Grewel, S S; Fletcher, A; Bill, D J; Dourish, C T (1994) Behavioural and pharmacological validation of the elevated “zero-maze” as an animal model of anxiety. Psychopharmacol., 116:56-64.
Male Sprague-Dawley 200-250 g (Envigo UK) rats were used. Animals were group-housed (5 per cage; cage size: 40×40×20 cm) in a temperature-controlled environment (22±2° C.), under a 12 h light-dark cycle (lights on: 08:00 hours) for one week prior to testing. Food and water were freely available. Number of animals per group=5. Animals were moved into the experimental room 16-24 hours before testing.
The elevated 0-maze comprises a black Perspex annular platform (105 cm diameter, 10 cm width) elevated to 65 cm above ground level, divided equally into four quadrants. Two opposite quadrants are enclosed by clear red Perspex walls (27 cm high) on both the inner and outer edges of the platform, while the remaining two opposite quadrants are surrounded only by a Perspex “lip” (1 cm high) which serves as a tactile guide to animals on these open areas.
Subjects were weighed and tail marked before being injected. After a specified pre-treatment time, subjects were placed in a closed quadrant and a 5-min test period were recorded on videotape for subsequent analysis. The maze was cleaned with 5% methanol/water solution and dried thoroughly between test sessions. Behavioural measures comprise percentage time spent on the open areas (% TO) and frequency of stretched attend postures (SAP) from closed to open quadrants. Since the control groups were all treated identically with the same vehicle these were combined to increase power. The Chlordiazepoxide groups were also treated identically with the same dose so these were also combined to increase power. Animals are scored as being in the open area when all four paws were in an open quadrant and in the closed area only when all four paws have passed over the open-closed divide. All testing were carried out between 9.00 and 16.00 hours.
Chlordiazepoxide was formulated in Vehicle 1 (saline) to a concentration of 1.2 mg/mL to provide a dose of 6 mg/kg when administered ip in 5 mL/kg dosing volumes.
35 male Sprague-Dawley rats in treatment groups of 5, were intraperitoneally dosed with either Vehicle 1 (saline) or Rac-MBDB at 1 of 5 dose levels (2.5, 5, 10, 15 & 30 mg/kg) or chlordiazepoxide (6 mg/kg) in 5 mL/kg injection volumes. Thirty min later at T-0, rats were individually placed in a closed arm of the zero-maze and behavior assessed by a “blind” observer using remote video monitoring over the subsequent 5 min. The animals were then removed and the maze carefully wiped with 5% methanol/water solution before the next test was begun.
35 male Sprague-Dawley rats in treatment groups of 5, were intraperitoneally dosed with either Vehicle 1 (saline) or R-MBDB at 1 of 5 dose levels (2.5, 5, 10, 15 & 30 mg/kg) or chlordiazepoxide (6 mg/kg) in 5 mL/kg injection volumes. […]

For `CCC(Cc1ccc2c(c1)OCO2)NC` (stereo not drawn) [MBDB, 1-(benzo[d][1,3]dioxol-5-yl)-N-methylbutan-2-amine], the “Coming Down, time after dose” value ([1]; adapted from PiHKAL 1991) is given as about 90 min and the “Oral MBDB dose, drug activity level Very Strong” value ([1]; oral) is given as at least 350 mg.
In the case of `CC[C@@H](Cc1ccc2c(c1)OCO2)NC` [S-MBDB], the “change in CAPS-5 assessment compared to the placebo group” value [2] is reported as “significant mean reduction”, the “clinician-rated functional impairment score as measured by SDS compared to placebo-treated controls” value [2] is reported as “significant improvement” and the “daytime sleepiness as measured by ESS” value [2] is reported as “significant improvement”. The “depression as measured by HAM-D compared to placebo-treated controls” value [2] was “significant improvement”, the “frequency of stretched attend postures (SAPs)” value (“frequency” for short) (Male Sprague-Dawley rats; 5 mg/kg ip, vs vehicle) was “reached significance” and the “frequency” value (Male Sprague-Dawley rats; 10 mg/kg ip) was “showed a rapid reduction in total SAPs”. For the same compound, the “frequency” value (Male Sprague-Dawley rats; 15 mg/kg ip) was “showed a reduction in the number of SAPs compared to lower doses”, the “frequency” value (Male Sprague-Dawley rats; 30 mg/kg ip, vs vehicle) was “decreased the frequency of SAPs as effectively as the benzodiazepine chlordiazepoxide” and the “frequency” value (Male Sprague-Dawley rats; 30 mg/kg ip, vs vehicle, listed as S MBDB) was “significantly reduced the number of SAPs”. The “dose at which switch to an anxiolytic effect was shown (magnitude of reduction in SAPs)” value (Male Sprague-Dawley rats) was 10 mg/kg.
In the case of `CC[C@H](Cc1ccc2c(c1)OCO2)NC` [R-MBDB], the “change in CAPS-5 assessment compared to the placebo group” value [2] is reported as “significant mean reduction”, the “clinician-rated functional impairment score as measured by SDS compared to placebo-treated controls” value [2] is reported as “significant improvement” and the “daytime sleepiness as measured by ESS” value [2] is reported as “significant improvement”. The “depression as measured by HAM-D compared to placebo-treated controls” value [2] was “significant improvement”, the “frequency” value (Male Sprague-Dawley rats; 10 mg/kg ip) was “produced a consistent level of SAPs similar to the 5 mg/kg” and the “frequency” value (Male Sprague-Dawley rats; 15 mg/kg ip) was “showed a reduction in the number of SAPs compared to lower doses”. The “frequency” value (Male Sprague-Dawley rats; 30 mg/kg ip, vs vehicle) was “decreased the frequency of SAPs as effectively as the benzodiazepine chlordiazepoxide”, the “frequency” value (Male Sprague-Dawley rats; 30 mg/kg ip, vs vehicle, listed as R MBDB) was “significantly reduced the number of SAPs” and the “dose at which switch to an anxiolytic effect was shown (magnitude of reduction in SAPs)” value (Male Sprague-Dawley rats) was 15 mg/kg.
